Data on 20 molecules can be found in US20240228446A1, “PREPARATION METHOD FOR BICYCLIC COMPOUND AND APPLICATION AS ANTIFUNGAL AGENT” (priority 2021, published 2024).

The test system of data set [1] is Candida albicans ATCC MYA-2876. The experiment in a line: Minimal inhibitory concentration (MIC) test on fungal growth (CLSI M27, yeasts). Format: cell-based. The settings on record: lowest concentration inhibiting growth of yeast by 50%, 35° C., 24 hours, RPMI1640; for MIC: Candida albicans, read-out: MIC Candida albicans ATCC MYA-2876. The procedure, abridged: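 Broth microdilution followed CLSI M27 in RPMI1640 buffered with 0.165 M MOPS, pH 7.0, with a final inoculum of 500–2500 CFU/mL. Eleven 2-fold compound concentrations were tested, and plates were incubated 24 h at 35 °C. MIC was the lowest concentration giving 50% growth inhibition, read visually with optional OD530 assistance.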

Data set [2] concerns Aspergillus fumigatus ATCC MYA-4609. The data set is described as follows: Minimal inhibitory concentration (MIC) test on fungal growth (CLSI M38, Aspergillus). It is filed as cell-based. As to conditions: lowest concentration inhibiting Aspergillus by 100%, 35° C., 48 hours, RPMI1640; for MIC: Aspergillus fumigatus, read-out: MIC Aspergillus fumigatus ATCC MYA-4609. As to the method:
• RPMI1640 medium: Brand: Gibco, article number: 31800-014 • Sabouraud dextrose agar (SDA): Brand: Hope Bio, article number: HB0253-81 • Voriconazole: Brand: Adamas, article number: 22105A • Amphotericin B: Brand: AbCam, article number: ab141199
MIC test was conducted in accordance with the guidelines and requirements of CLSI M27 (for yeasts) and M38 (for Aspergillus).
Strain preparation: The strains were inoculated 1 day in advance by streaking on SDA plates with glycerol strains stored at −80° C. The strains were cultured at 35° C. and 40 to 60% humidity for 18 to 24 hours. Streak inoculation of Aspergillus fumigatus and Cryptococcus neoformans was required to be done 3 days and 2 days in advance, respectively.
Preparation of culture medium and compounds: The liquid culture medium RPMI was prepared with pure water, and 0.165 mol/L MOPS was added to adjust the pH to 7.0. The mixture was filtered with a 0.22 μm-membrane filter, sterilized, and stored at 4° C. (no more than 3 months). 0.85% physiological saline was sterilized at 121° C. for 30 min and then stored at room temperature (no more than 1 week). The compounds were dissolved in DMSO to 12.8 mg/mL and stored at −20° C.
For Aspergillus, 5 mL of physiological saline was added to cover the mycelium, and the spores were gently scraped off with a spreader. The spore suspension was then transferred to a sterile test tube. An appropriate amount of spore suspension was taken and counted under a microscope using a hemocytometer. Spore concentration was adjusted to approximately 0.4 to 5×10^4 spores/mL using RPMI1640 medium.
The compound was diluted to the highest 800 μg/mL (or 400 μg/mL) with DMSO, and a 10-step 2-fold gradient dilution was performed, resulting in 11 concentrations. 2 μL of the gradient-diluted compound was transferred to the corresponding wells of a 96-well plate, and then 198 μL of the inoculum was transferred to the test plate. The plate was incubated at 35° C. for 24 hours (Aspergillus fumigatus and Cryptococcus neoformans were incubated for 48 and 72 hours, respectively).
After the incubation, the growth of the fungi was visually observed. The lowest concentration of the compound that inhibited the growth of yeast by 50% (inhibited Aspergillus by 100%) was defined as the minimum inhibitory concentration (MIC, μg/mL). A magnifying glass or reading at OD530 nm could be used to assist in determining the MIC. Photos were taken of the test plates for record keeping.

A short description of data set [3]: Drug-drug interaction / pharmacokinetic study of single drug and combination with nifedipine by gavage. The settings on record: CD1 mice, ketoconazole 30 mg/kg alone vs ketoconazole 30 mg/kg + nifedipine 15 mg/kg.
Protocol: The dosing solution was prepared on the day of administration. An appropriate amount of nifedipine was precisely weighed into a centrifuge tube, then an appropriate volume of 0.5% MC was added thereto and vortexed to dissolve, resulting in a dosing solution with a concentration of 1.5 mg/mL.
Appropriate amounts of ketoconazole and isavuconazonium sulfate (CAS #946075-13-4) were precisely weighed and placed into separate centrifuge tubes. An appropriate volume of 0.5% MC was added to each tube and vortexed to dissolve, resulting in dosing solutions with concentrations of 3 mg/mL and 12 mg/mL, respectively.
An appropriate amount of the compound of the example of the present disclosure was precisely weighed into a centrifuge tube, then an appropriate volume of 16% SBECD was added thereto and vortexed to dissolve, resulting in a dosing solution with a concentration of 10 mg/mL.
CD1 mice, 6 to 8 weeks old, male, were divided into seven groups. […]

≈ marks a conversion by molar mass, not a printed value.

As to `O[C@H](COc1ccc(C23CC(C(F)(F)[C@@](O)(Cn4cnnn4)c4ccc(F)cc4F)(C2)C3)cn1)C(F)(F)F` [Compound 97B], in data set [1], the “MIC Candida albicans ATCC MYA-2876” value was found to be 7.8 ng/mL (≈ 0.0142 µM). The “MIC Aspergillus fumigatus ATCC MYA-4609” value in data set [2] is 8 µg/mL (≈ 14.6 µM). For `O[C@H](COc1ccc(C23CC(C(F)(F)[C@](O)(Cn4cncn4)c4ccc(F)cc4F)(C2)C3)cn1)C(F)(F)F` [Compound 98A] the same measures were not above 3.9 ng/mL and 1 µg/mL (≈ 1.83 µM). Turning to `O[C@H](COc1ccc(C23CC(C(F)(F)[C@@](O)(Cn4cncn4)c4ccc(F)cc4F)(C2)C3)cn1)C(F)(F)F` [Compound 98B], the “MIC Candida albicans ATCC MYA-2876” value in data set [1] is not above 3.9 ng/mL. Besides, the “MIC Aspergillus fumigatus ATCC MYA-4609” value in data set [2] stood at 2 µg/mL (≈ 3.66 µM). With `OC(COc1ccc(C23CC(C(F)(F)C(O)(Cn4cncn4)c4ccc(F)cc4F)(C2)C3)cn1)C(F)(F)F` (stereo not drawn) [Compound 98], the “MIC Candida albicans ATCC MYA-2876” value in data set [1] is not above 3.9 ng/mL. The “MIC Aspergillus fumigatus ATCC MYA-4609” value in data set [2] came out at 2 µg/mL (≈ 3.66 µM). Taken in the same sequence, the figures for `O[C@@](Cn1cnnn1)(c1ccc(F)cc1F)C(F)(F)C12CC(c3ccc(OCC4(F)COC4)cc3)(C1)C2` [Compound 121A] were not above 3.9 ng/mL and 4 µg/mL (≈ 7.66 µM). On to `OC(Cn1cnnn1)(c1ccc(F)cc1F)C(F)(F)C12CC(c3ccc(OCC4(F)COC4)cc3)(C1)C2` (stereo not drawn) [Compound 121], for which the MIC was 7.8 ng/mL (≈ 0.0149 µM) in data set [1] and 8 µg/mL (≈ 15.3 µM) in data set [2]. For `N#Cc1ccc(C23CC(C(F)(F)C(O)(Cn4cncn4)c4ccc(F)cc4F)(C2)C3)cn1` (stereo not drawn) [Compound 128], the “MIC Candida albicans ATCC MYA-2876” value in data set [1] came out at 7.8 ng/mL (≈ 0.0176 µM). In data set [2], the “MIC Aspergillus fumigatus ATCC MYA-4609” value was 4 µg/mL (≈ 9.02 µM). In the case of `O=C(COc1ccc(C23CC(C(F)(F)C(O)(Cn4cncn4)c4ccc(F)cc4F)(C2)C3)cc1)NC1CC1` (stereo not drawn) [Compound 129], the MIC in data set [1] stood at 7.8 ng/mL (≈ 0.0147 µM); in data set [2], 4 µg/mL (≈ 7.54 µM). In the case of `CS(=O)(=O)COc1ccc(C23CC(C(F)(F)C(O)(Cn4cnnn4)c4ccc(F)cc4F)(C2)C3)cc1` (stereo not drawn) [Compound 131], the figures for the MIC in data set [1] and in data set [2] were 7.8 ng/mL (≈ 0.0148 µM) and 8 µg/mL (≈ 15.2 µM), respectively. With `O[C@H](COc1ccc(C23CC(C(F)(F)[C@](O)(Cn4cnnn4)c4ccc(F)cc4F)(C2)C3)cc1F)C(F)(F)F` [Compound 134A], the MIC is not above 3.9 ng/mL in data set [1] and 2 µg/mL (≈ 3.54 µM) in data set [2]. For `O[C@H](COc1ccc(C23CC(C(F)(F)C(O)(Cn4cnnn4)c4ccc(F)cc4F)(C2)C3)cc1F)C(F)(F)F` (stereo partly drawn) [Compound 134] the same measures were 7.8 ng/mL (≈ 0.0138 µM) and 4 µg/mL (≈ 7.09 µM).

In the case of `CC(Oc1ccc(C23CC(C(F)(F)C(O)(Cn4cnnn4)c4ccc(F)cc4F)(C2)C3)cc1)C(O)C(F)(F)F` (stereo not drawn) [Compound 135], the MIC in data set [1] is 16 ng/mL (≈ 0.0285 µM); in data set [2] it was 8 µg/mL (≈ 14.3 µM). For `COC(COc1ccc(C23CC(C(F)(F)C(O)(Cn4cnnn4)c4ccc(F)cc4F)(C2)C3)cc1)C(F)(F)F` (stereo not drawn) [Compound 136] the same measures were 16 ng/mL (≈ 0.0285 µM) and 4 µg/mL (≈ 7.14 µM). For `OC(COc1ccc(C23CC(C(F)(F)C(O)(Cn4cnnn4)c4ccc(F)cc4F)(C2)C3)cc1)C(F)F` (stereo not drawn) [Compound 137] the same measures were not above 3.9 ng/mL and 8 µg/mL (≈ 15.1 µM).

Consider `OC(COc1ccc(C23CC(C(F)(F)C(O)(Cn4cnnn4)c4ccc(F)cc4F)(C2)C3)cc1)CC(F)(F)F` (stereo not drawn) [Compound 142], for which the “MIC Candida albicans ATCC MYA-2876” value in data set [1] came out at 7.8 ng/mL (≈ 0.0139 µM). Besides, in data set [2], the “MIC Aspergillus fumigatus ATCC MYA-4609” value was found to be 8 µg/mL (≈ 14.3 µM). As for `OC(COc1ccc(C23CC(C(F)(F)C(O)(Cn4cnnn4)c4ccc(F)cc4F)(C2)C3)cc1)C1CC1` (stereo not drawn) [Compound 144], the MIC came to 7.8 ng/mL (≈ 0.015 µM) in data set [1] and 8 µg/mL (≈ 15.4 µM) in data set [2]. For `OC1(COc2ccc(C34CC(C(F)(F)[C@](O)(Cn5cnnn5)c5ccc(F)cc5F)(C3)C4)cc2)CC(F)(F)C1` [Compound 149A] the same measures were not above 3.9 ng/mL and 2 µg/mL (≈ 3.61 µM). In the case of `OC1(COc2ccc(C34CC(C(F)(F)C(O)(Cn5cnnn5)c5ccc(F)cc5F)(C3)C4)cc2)CC(F)(F)C1` (stereo not drawn) [Compound 149], the MIC in data set [1] was not above 3.9 ng/mL; in data set [2], 8 µg/mL (≈ 14.4 µM). In the case of `OC1(COc2ccc(C34CC(C(F)(F)C(O)(Cn5cncn5)c5ccc(F)cc5F)(C3)C4)cc2)COC1` (stereo not drawn) [Compound 151], the MIC in data set [1] is not above 3.9 ng/mL; in data set [2], 2 µg/mL (≈ 3.85 µM). `CC(=O)N1CCN(c2ccc(OCC3COC(Cn4ccnc4)(c4ccc(Cl)cc4Cl)O3)cc2)CC1` (stereo not drawn) [ketoconazole]: the “exposure to ketoconazole, monotherapy group vs combination therapy group” value in data set [3] is listed as “not significantly different”.

In general, MIC refers to the least concentration at which growth counts as inhibited.
